Measured values taken from patent US7105515B2, “Derivatives of sulphonamides, their preparation and use as medicaments” (Laboratories Del Dr. Esteve, S.A., priority 2001, dated 2006).
Where a name gives a salt, the structure may show the parent alone.

SMILES	melting point
Cc1c(S(=O)(=O)Nc2ccc3[nH]cc(CCN(C)C)c3c2)sc2ccc(Cl)cc12 [Example 7, N-[3-(2-dimethylaminoethyl)-1H-indol-5-yl]-5-chloro-3-methylbenzo[b]thiophene-2-sulphonamide]	226 to 227 °C
CN1CCC(c2c[nH]c3ccc(NS(=O)(=O)c4cccc5cccnc45)cc23)CC1 [Example 16, N-[3-(1-methylpiperidin-4-yl)-1H-indol-5-yl]quinoline-8-sulphonamide]	280 °C (dec.)
CN1CCC(c2c[nH]c3ccc(NS(=O)(=O)c4ccc(-c5ccccc5)cc4)cc23)CC1 [Example 15, N-[3-(1-methylpiperidin-4-yl)-1H-indol-5-yl]-4-phenylbenzenesulphonamide]	247 to 248 °C
CCN(CC)CCc1c[nH]c2ccc(NS(=O)(=O)c3sc4ccc(Cl)cc4c3C)cc12 [Example 1, N-[3-(2-diethylaminoethyl)-1H-indol-5-yl]-5-chloro-3-methylbenzo[b]thiophene-2-sulphonamide]	170 to 173 °C
CN1CCC(c2c[nH]c3ccc(NS(=O)(=O)c4ccc(Cl)s4)cc23)CC1 [Example 14, N-[3-(1-methylpiperidin-4-yl)-1H-indol-5-yl]-5-chlorothiophene-2-sulphonamide]	284 °C (dec.)
CN1CCC(c2c[nH]c3ccc(NS(=O)(=O)c4cccc5ccccc45)cc23)CC1 (as salt: HCl) [Example 13, N-[3-(1-methylpiperidin-4-yl)-1H-indol-5-yl]naphthalene-1-sulphonamide hydrochloride]	212 °C (dec.)

Continued, values first:

melting point	SMILES
255 to 257 °C	CCN(CC)CCc1c[nH]c2ccc(NS(=O)(=O)c3cccc4ccccc34)cc12 (as salt: HCl) [Example 3, Hydrochloride N-[3-(2-diethylaminoethyl)-1H-indol-5-yl]naphthalene-1-sulphonamide]
180 to 181 °C	CCN(CC)CCc1c[nH]c2ccc(NS(=O)(=O)c3ccc(Cl)s3)cc12 [Example 6, N-[3-(2-diethylaminoethyl)-1H-indol-5-yl]-5-chlorothiophene-2-sulphonamide]
203 to 205 °C	CN(C)CCc1c[nH]c2ccc(NS(=O)(=O)c3cccc4ccccc34)cc12 [Example 8, N-[3-(2-dimethylaminoethyl)-1H-indol-5-yl]naphthalene-1-sulphonamide]
172 to 173 °C	CCN(CC)CCc1c[nH]c2ccc(NS(=O)(=O)c3ccc4ccccc4c3)cc12 [Example 17, N-[3-(2-diethylaminoethyl)-1H-indol-5-yl]naphthalene-2-sulphonamide]
161 to 163 °C	CCN(CC)CCc1c[nH]c2ccc(NS(=O)(=O)c3ccc(-c4ccccc4)cc3)cc12 [Example 5, N-[3-(2-diethylaminoethyl)-1H-indol-5-yl]-4-phenylbenzenesulphonamide]
168 to 170 °C	CCN(CC)CCc1c[nH]c2ccc(NS(=O)(=O)c3cc(Cl)cc(Cl)c3)cc12 [Example 4, N-[3-(2-diethylaminoethyl)-1H-indol-5-yl]-3,5-dichlorobenzenesulphonamide]
